The test system of assay [1] is Rattus norvegicus. As to the kind of experiment: Neuroprotective effect in rat transient mCAO focal ischemia model assessed as reduction of infarct volume at 10 mg/kg relative to control. The class given is functional. The arrangement: scale not given: the % may be the effect or the level left.
Assay [2] has as its system Rattus norvegicus. As to the kind of experiment: Neuroprotective effect in rat transient mCAO focal ischemia model assessed as reduction of infarct volume at 30 mg/kg relative to control. The class given is functional. Further details: scale not given: the % may be the effect or the level left.

The record followed here is ChEMBL document CHEMBL1139346, “Discovery of innovative small molecule therapeutics” (2009).

Regarding `CO[C@@H]1C/C(C)=C\[C@H]2CC[C@@H]([C@@H](C)C[C@@H](C)C(=O)[C@H](OC)[C@H](O)/C(C)=C/[C@@H](C)C(=O)C[C@@H]([C@H](C)C[C@@H]3CC[C@@H](O)[C@H](OC)C3)OC(=O)[C@@H]3CCCCN3C(=O)C(=O)[C@]3(O)O[C@@H](CC[C@H]3C)C1)N(c1ccccc1)O2` [ILS-920], the Activity in the assay on Rattus norvegicus [1] is recorded as 23%; with Rattus norvegicus [2], 36%.
